Reference: patent EP0214743B1, “Use of quinoline derivatives in the manufacture of medicaments for the treatment of cerebrovascular disorders and cerebral senility” (BEECHAM GROUP PLC, priority 1985, dated 1987)
Marks after values point to notes of the source that are not given here.

Experiments:
[1] = system: Triethyltin-induced cerebral oedema; test: Triethyltin-induced cerebral oedema in the rat; assay type: in vivo; details: twice daily for 5 days, Wistar rats intoxicated with triethyltin chloride 2 mg/kg
Experimental: 1. Triethyltin-induced cerebral oedema in the rat.
The cerebral oedema is induced by oral administrations repeated for 5 consecutive days - one administration per day - of triethyltin chloride at a dose of 2 mg/kg. The test compound is also administered orally twice daily as aqueous solution or suspension (1ml/100g body-weight); these administrations are given during the 5 days of intoxication with tin. Three groups of 10 male specific pathogen-free (SPF) Wistar rats of 280 ± 10g body-weight are used: • 1 control group • 1 group intoxicated with triethyltin • 1 group intoxicated with triethyltin and treated with the studied compound. The rats are killed on the evening of the fifth day; the brain is removed, weighed fresh and after desiccation to constant weight and the water content of each brain is calculated: [H₂O] = fresh weight - dry weight. [formula] The following are then calculated: • the mean water content (M ± Sm%) of each group; • the protection index P due to the administered compound: [formula] The significance is evaluated by the Mann-Whitney test.

[2] = system: rat cortex; test: Effect of test compound on oxygen tension (pO₂) of rat cortex; assay type: in vivo; details: for Increase in pO₂ (torr): normoxic cortex, normal anaesthetized rats; for Ischaemic Cortex Increase in pO₂ (torr) (mean ± sem): both carotid arteries ligated 3 weeks previously, N=5
Experimental: 2. Effect of test compound on oxygen tension (pO₂) of rat cortex.
Male rats (280-350g) were anaesthetized with sodium-thio pentone (100 mg/kg i.p.). The arterial blood pressure was recorded from a femoral artery.
The cranium was opened with a trephine (0.6 mm) above the praecentral cortex. The dura mata was carefully removed and a multiwire oxygen sensitive electrode was placed on the cortex.
The electrode current was continuously recorded.
After a stabilisation period the test compound was administered. The change in the cortical pO₂, produced by compound administration, was calculated for each animal.
These measurements were performed in normal animals and in animals in which both carotid arteries had been ligated 3 weeks previously in order to induce cortical ischaemia.

Row | Compound | % inhibition of cerebral oedema formation ([1]; 2x1 mg/kg p.o.) | % inhibition of cerebral oedema formation ([1]; 2x12.5 mg/kg p.o.) | % inhibition of cerebral oedema formation ([1]; dosage cell empty in this row, p.o.) | Increase in pO₂ (torr) ([2]; 0.4 mg/kg i.v., N=3) | Ischaemic Cortex Increase in pO₂ (torr) (mean ± sem) ([2]; 0.5 mg/kg i.v.) | Increase in pO₂ (torr) ([2]; 0.8 mg/kg i.v., N=2) | Ischaemic Cortex Increase in pO₂ (torr) (mean ± sem) ([2]; 1.0 mg/kg i.v.) | effect on pO₂ in the rat normoxic and chronic ischaemic cortex ([2]; summary in words of Table 2) | % inhibition of cerebral oedema formation ([1]; 2x2.5 mg/kg p.o.)
1 | CC1(C)C=C(N2CCCC2=O)c2cc(C#N)ccc2N1 [Compound C, 6-Cyano-2,2-dimethyl-4-(2-oxo-1-pyrrolidinyl)-1,2-dihydroquinoline] | 53.3** % | 100** % |  |  |  |  |  |  | 
2 | CC1(C)C=C(N2CCCC2=O)c2cc(Br)ccc2N1 [Compound B, 6-Bromo-2,2-dimethyl-4-(2-oxo-1-pyrrolidinyl)-1,2-dihydroquinoline] |  | 41.4** % | 100** % |  |  |  |  |  | 
3 | CC1(C)Nc2ccc(C#N)cc2[C@@H](N2CCCC2=O)[C@@H]1O (relative stereo) [Compound A, trans-2,2-dimethyl-6-cyano-4-(2-oxo-1-pyrrolidinyl)-1,2,3,4-tetrahydroquinolin-3-ol] |  |  |  | 2.1 ± 2.0 torr | 0.9 ± 0.9 torr | 4.1 ± 0.9 torr | 1.9 ± 1.9 torr | increases pO₂ | 30* %
